# Test results published in ChEMBL document CHEMBL3414492, “Enhancing the cellular anti-proliferation activity of pyridazinones as c-met inhibitors using docking analysis” (Eur J Med Chem, 2015).
# Calls of active or inactive are those of the source. The calls are words filed in the database; no cut-off is given here.
# Tests used:
# [1] = Selectivity index, ratio of IC50 for human NCI-H661 cells to IC50 for human EBC1 cells; assay type: functional
# [2] = target: Epidermal growth factor receptor (Homo sapiens, UniProt P00533); experiment: Inhibition of EGFR (unknown origin)
# [3] = target: T1, Hepatocyte growth factor receptor (Homo sapiens, UniProt P08581); experiment: Inhibition of c-Met Y1234/1235 phosphorylation in human EBC1 cells at 0.1 uM incubated for 2 hrs by Western blot method; assay type: cell-based
# NCI-H358 [4] = experiment: Selectivity index, ratio of IC50 for human NCI-H358 cells to IC50 for human MKN45 cells; assay type: functional
# [5] = target: Tyrosine-protein kinase receptor TYRO3 (Homo sapiens, UniProt Q06418); experiment: Inhibition of TYRO3 (unknown origin)
# NCI-H520 = experiment: Inhibition of cell proliferation of human NCI-H520 cells after 72 hrs by SRB assay; assay type: functional, cell-based; conditions: NCI-H520, 72 h
# SNU-5 [6] = experiment: Selectivity index, ratio of IC50 for human PC3 cells to IC50 for human SNU5 cells; assay type: functional
# A549 [7] = experiment: Inhibition of cell proliferation of human A549 cells after 72 hrs by SRB assay; assay type: functional, cell-based; conditions: A549, 72 h
# [8] = target: Receptor tyrosine-protein kinase erbB-4 (Homo sapiens, UniProt Q15303); experiment: Inhibition of ERBB4 (unknown origin)
# [9] = target: ALK tyrosine kinase receptor (Homo sapiens, UniProt Q9UM73); experiment: Inhibition of ALK (unknown origin)
# [10] = Inhibition of cell proliferation of human SNU5 cells after 72 hrs by SRB assay; conditions: SNU-5, 72 h
# [11] = target: Tyrosine-protein kinase receptor UFO (Homo sapiens, UniProt P30530); experiment: Inhibition of AXL (unknown origin)
# [12] = target: Fibroblast growth factor receptor 1 (Homo sapiens, UniProt P11362); experiment: Inhibition of FGFR1 (unknown origin)
# NCI-H358 [13] = experiment: Selectivity index, ratio of IC50 for human NCI-H358 cells to IC50 for human EBC1 cells; assay type: functional
# SNU-5 [14] = experiment: Selectivity index, ratio of IC50 for human NCI-H661 cells to IC50 for human SNU5 cells; assay type: functional
# [15] = target: Vascular endothelial growth factor receptor 1 (Homo sapiens, UniProt P17948); experiment: Inhibition of FLT1 (unknown origin)
# SNU-16 [16] = experiment: Selectivity index, ratio of IC50 for human SNU16 cells to IC50 for human SNU5 cells; assay type: functional
# A549 [17] = experiment: Selectivity index, ratio of IC50 for human A549 cells to IC50 for human SNU5 cells; assay type: functional
# A549 [18] = experiment: Selectivity index, ratio of IC50 for human A549 cells to IC50 for human EBC1 cells; assay type: functional
# [19] = Selectivity index, ratio of IC50 for human PC3 cells to IC50 for human EBC1 cells; assay type: functional
# [20] = target: Insulin-like growth factor 1 receptor (Homo sapiens, UniProt P08069); experiment: Inhibition of IGF1R (unknown origin)
# A549 [21] = experiment: Selectivity index, ratio of IC50 for human A549 cells to IC50 for human MKN45 cells; assay type: functional
# SNU-5 [22] = experiment: Selectivity index, ratio of IC50 for human NCI-H520 cells to IC50 for human SNU5 cells; assay type: functional
# [23] = Inhibition of cell proliferation of human SNU16 cells after 72 hrs by SRB assay; assay type: functional, cell-based; conditions: SNU-16, 72 h
# NCI-H661 = experiment: Inhibition of cell proliferation of human NCI-H661 cells after 72 hrs by SRB assay; conditions: NCI-H661, 72 h
# [24] = Inhibition of cell proliferation of human EBC1 cells after 72 hrs by SRB assay; conditions: EBC-1, 72 h
# NCI-H460 [25] = experiment: Inhibition of cell proliferation of human NCI-H460 cells after 72 hrs by SRB assay; assay type: functional, cell-based; conditions: NCI-H460, 72 h
# [26] = target: T1, Hepatocyte growth factor receptor; experiment: Inhibition of c-Met in human EBC1 cells assessed as reduction in ERK T202/Y204 phosphorylation at 11 nM to 100 nM incubated for 2 hrs by Western blot method; assay type: cell-based
# SNU-16 [27] = experiment: Selectivity index, ratio of IC50 for human SNU16 cells to IC50 for human MKN45 cells; assay type: functional
# [28] = target: Epidermal growth factor receptor (Homo sapiens, UniProt P00533, L858R/T790M); experiment: Inhibition of EGFR T790M/L858R mutant (unknown origin); assay type: protein assay
# [29] = Inhibition of cell proliferation of human MKN45 cells after 72 hrs by SRB assay; conditions: MKN-45, 72 h
# NCI-H358 [30] = experiment: Selectivity index, ratio of IC50 for human NCI-H358 cells to IC50 for human SNU5 cells; assay type: functional
# MKN-45 [31] = experiment: Selectivity index, ratio of IC50 for human NCI-H520 cells to IC50 for human MKN45 cells; assay type: functional
# [32] = Selectivity index, ratio of IC50 for human NCI-H520 cells to IC50 for human EBC1 cells; assay type: functional
# [33] = target: T1, Hepatocyte growth factor receptor; experiment: Inhibition of c-Met Y1234/1235 phosphorylation in human EBC1 cells at 11 nM to 100 nM incubated for 2 hrs by Western blot method; assay type: cell-based
# [34] = target: Macrophage-stimulating protein receptor (Homo sapiens, UniProt Q04912); experiment: Inhibition of RON (unknown origin)
# SNU-16 [35] = experiment: Selectivity index, ratio of IC50 for human SNU16 cells to IC50 for human EBC1 cells; assay type: functional
# NCI-H460 [36] = experiment: Selectivity index, ratio of IC50 for human NCI-H460 cells to IC50 for human EBC1 cells; assay type: functional
# Ephrin type-A receptor 2 = Ephrin type-A receptor 2 (Homo sapiens, UniProt P29317); experiment: Inhibition of EPHA2 (unknown origin)
# [37] = target: T1, Hepatocyte growth factor receptor; experiment: Inhibition of c-Met in human EBC1 cells assessed as reduction in Akt S473 phosphorylation at 11 nM to 100 nM incubated for 2 hrs by Western blot method; assay type: cell-based
# [38] = Inhibition of cell proliferation of human PC3 cells after 72 hrs by SRB assay; assay type: functional, cell-based; conditions: PC-3, 72 h
# MKN-45 [39] = experiment: Selectivity index, ratio of IC50 for human PC3 cells to IC50 for human MKN45 cells; assay type: functional
# NCI-H460 [40] = experiment: Selectivity index, ratio of IC50 for human NCI-H460 cells to IC50 for human SNU5 cells; assay type: functional
# NCI-H460 [41] = experiment: Selectivity index, ratio of IC50 for human NCI-H460 cells to IC50 for human MKN45 cells; assay type: functional
# NCI-H358 [42] = experiment: Inhibition of cell proliferation of human NCI-H358 cells after 72 hrs by SRB assay; assay type: functional, cell-based; conditions: NCI-H358, 72 h
# MKN-45 [43] = experiment: Selectivity index, ratio of IC50 for human NCI-H661 cells to IC50 for human MKN45 cells; assay type: functional
# [44] = target: T1, Hepatocyte growth factor receptor; experiment: Inhibition of recombinant c-Met (unknown origin) using poly (Glu,Tyr)4:1 substrate incubated for 60 mins by ELISA method
# [45] = target: Platelet-derived growth factor receptor beta (Homo sapiens, UniProt P09619); experiment: Inhibition of PDGFRbeta (unknown origin)
structure (smiles),measurement,setting,value
O=c1ccc(-n2ccc3ccc(F)cc32)nn1CCOc1ccnc2cc(OCCCN3CCOCC3)ccc12,Ratio IC50,[1],100
same,IC50,[2],> 1 µM
same,inhibition,[3],Active
same,Ratio IC50,NCI-H358 [4],100
same,IC50,[5],> 1 µM
same,IC50,NCI-H520,> 10 µM
same,Ratio IC50,SNU-5 [6],> 100
same,IC50,A549 [7],> 10 µM
same,IC50,[8],> 1 µM
same,IC50,[9],> 1 µM
same,IC50,[10],88.1 µM
same,IC50,[11],> 1 µM
same,IC50,[12],> 1 µM
same,Ratio IC50,NCI-H358 [13],100
same,Ratio IC50,SNU-5 [14],100
same,IC50,[15],> 1 µM
same,Ratio IC50,SNU-16 [16],> 100
same,Ratio IC50,A549 [17],100
same,Ratio IC50,A549 [18],100
same,Ratio IC50,[19],100
same,IC50,[20],> 1 µM
same,Ratio IC50,A549 [21],100
same,Ratio IC50,SNU-5 [22],100
same,IC50,[23],> 10 µM
same,IC50,NCI-H661,> 10000 µM
same,IC50,[24],0.0172 µM
same,IC50,NCI-H460 [25],> 10 µM
same,inhibition,[26],Active
same,Ratio IC50,SNU-16 [27],> 100
same,IC50,[28],> 1 µM
same,IC50,[29],60.7 µM
same,Ratio IC50,NCI-H358 [30],100
same,Ratio IC50,MKN-45 [31],100
same,Ratio IC50,[32],100
same,inhibition,[33],Dose-dependent effect
same,IC50,[34],> 1 µM
same,Ratio IC50,SNU-16 [35],> 100
same,Ratio IC50,NCI-H460 [36],100
same,IC50,Ephrin type-A receptor 2,> 1 µM
same,inhibition,[37],Active
same,IC50,[38],> 10 µM
same,Ratio IC50,MKN-45 [39],> 100
same,Ratio IC50,NCI-H460 [40],100
same,Ratio IC50,NCI-H460 [41],100
same,IC50,NCI-H358 [42],> 10 µM
same,Ratio IC50,MKN-45 [43],100
same,IC50,[44],0.0042 µM
same,IC50,[45],> 1 µM
